The record followed here is ChEMBL document CHEMBL1201862, “PubChem BioAssay data set” (2004).

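How tested: cells in 96-well plates exposed to compound for 48 hours at five concentrations. Abbreviation: GI50, concentration required for 50% inhibition of growth.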 Activity calls are given as the source filed them. Cut-off read from the data, not from the text of the source: active = GI50 up to about 1.1 µM and inactive = higher. Bounds are passed on as bounds.

Holding throughout (assay): NCI-60 cell line screen, 48 h
Assay [1] deals with A498.
Assay [2] deals with A549.
Assay [3] relates to ACHN.
In assay [4] the test system is HCT-116.
In assay [5] the test system is HOP-92.
Assay [6] concerns K562.
For assay [7], the system named is M14.
Assay [8] has as its system NCI-H23.
Assay [9] deals with NCI-H460.
In assay [10] the test system is OVCAR-4.
The subject of assay [11] is PC-3.
Assay [12] relates to SF-295.
For assay [13], the system named is SK-MEL-2.
Assay [14] deals with SK-MEL-5.
The test system of assay [15] is SNB-75.
In assay [16] the test system is SW-620.
For assay [17], the system named is T47D.
In assay [18] the test system is Malme-3M.
For assay [19], the system named is NCI-H522.

`C#CCCCC(=C)C[C@@H]1OC(=O)[C@H](C)[C@@H]1O`: the GI50 in [1], in assay [2], in assay [3], in [4], in [5] and in assay [6] was > 100 µM (inactive) each time. The GI50 in assay [7], in assay [8], in [9], in assay [10], in assay [11] and in assay [12] was > 100 µM (inactive) each time. Also, the GI50 in assay [13], in [14], in [15], in assay [16] and in assay [17] was > 100 µM (inactive) throughout.

For `O=C1/C(=C\c2ccc(F)cc2)CCOc2c1ccc1ccccc21`, the GI50 in [1] is 27.4 µM (inactive); in assay [2], 23.4 µM (inactive); in assay [4], 3.49 µM (inactive); in [5], 24.9 µM (inactive); in [6] it was 6.68 µM (inactive); in assay [7] it was 26.2 µM (inactive). Also, the GI50 in assay [18] is 16.5 µM (inactive); in assay [8], 12.8 µM (inactive); in assay [9], 25.1 µM (inactive); in assay [19], 34 µM (inactive); in assay [10], 15.3 µM (inactive); in assay [11], 33 µM (inactive). Moreover, the GI50 in assay [12] was 22 µM (inactive); in [13], 45.7 µM (inactive); in assay [14], 21.2 µM (inactive); in [15], 12.4 µM (inactive); in [16] it was 14.4 µM (inactive); in assay [17], 41.6 µM (inactive).

Regarding `COc1cc(/C=N/n2c(-c3ccccc3)n[nH]c2=O)cc(OC)c1OC`, the GI50 in assay [1] was 3.15 µM (inactive); in assay [2], 4.95 µM (inactive); in [3] it was 4.02 µM (inactive); in assay [4], 0.641 µM (active); in assay [5], 13.8 µM (inactive); in assay [6], 0.598 µM (active). For the same compound, the GI50 is 6.08 µM (inactive) in assay [7]; 1.46 µM (inactive) in assay [18]; 4.41 µM (inactive) in assay [8]; 0.826 µM (active) in [9]; 0.675 µM (active) in assay [19]; > 26.9 µM (inactive) in assay [10]. Also, the GI50 in assay [11] was 2.81 µM (inactive); in [12], 0.745 µM (active); in [13] it was 3.87 µM (inactive); in assay [14], 0.815 µM (active); in assay [15] it was 2.48 µM (inactive); in assay [17], > 100 µM (inactive).

As to `CC(=S)N/C=C1/C(=O)C=C(C)OC1=O`, the GI50 in assay [1], in assay [2], in [3], in assay [4], in [5] and in assay [6] was > 100 µM (inactive) in each case. Also, the GI50 in assay [7], in assay [8], in assay [9], in assay [19], in [10] and in [11] was > 100 µM (inactive) in each case. Further, the GI50 in assay [12] was > 100 µM (inactive); in [13] it was > 100 µM (inactive); in [14], 90.2 µM (inactive); in assay [15], 54.3 µM (inactive); in [16] it was > 100 µM (inactive); in assay [17] it was > 100 µM (inactive).
